# Measured values published in ChEMBL document CHEMBL5726441, “Isoindolone derivatives” (2017).
# Molecular target: Bromodomain-containing protein 4 (Homo sapiens, UniProt O60885)
# Experiment: TR-FRET Assay: Compound dilution series were prepared in DMSO via a 3-fold serial dilution from 2.5 mM to 42 nM. Compounds were then diluted 6:100 in assay buffer (20 mM Sodium Phosphate, pH 6.0, 50 mM NaCl, 1 mM EDTA, 0.01% Triton X-100, 1 mM DTT) to yield 3× working solutions. Six microliters (μL) of the working solution was then transferred to white, low-volume assay plates (Costar #3673). A 1.5× assay mixture containing His-tagged bromodomain, Europium-conjugated anti-His antibody (Invitrogen PV5596) and the Alexa-647-conjugated probe molecule was also prepared. Twelve μL of this solution were added to the assay plate to reach a final volume of 18 μL. The final concentration of 1× assay buffer contains 2% DMSO, 50 μM−0.85 nM compound, 8 nM bromodomain, 1 nM antibody and 100 or 30 nM probe (for BDI or BDII, respectively). After a one-hour incubation at room temperature, TR-FRET ratios were determined using an Envision multilabel plate reader (Ex 340, Em 495/520).TR-FRET data were normalized to the means of 24 no-compound controls (high) and 8 controls containing 1 μM un-labeled probe (low). Percent inhibition was plotted as a function of compound concentration and the data were fit with the 4 parameter logistic equation to obtain IC50s Inhibition constants (Ki) were calculated from the IC50s, probe Kd and probe concentration. Typical Z′ values were between 0.65 and 0.75. The minimum significant ratio was determined to evaluate assay reproducibility (Eastwood et al., (2006) J Biomol Screen, 11: 253-261).
row,Ki [µM],SMILES
1,3.62,Cc1[nH]c(-c2ccccc2Oc2ccccc2)c2c1C(=O)CC(CC(C)C)C2 (stereo not drawn)
2,0.943,Cc1[nH]c(-c2cccc3ccccc23)c2c1C(=O)CCC2
3,6.22,Cc1[nH]c(-c2ccccc2CN2C(=O)c3ccccc3C2=O)c2c1C(=O)CCC2
